Key:
[1] = system: U373; experiment: MTT colorimetric assay, overall cell growth; format: cell-based; details: Homo sapiens, U373 MG; U373 cells, 72 hours of incubation; read-out: IC50 (µM) In Vitro Growth Inhibitory Concentrations (MTT Colorimetric Assay) U373
Experimental: (§1) The compounds and particularly dihydrobenzopyran, thiochroman, tetrahydroquinoleine and tetrahydronaphthalene derivatives of the invention were evaluated for their anti-proliferative effect (by means of the colorimetric MTT assay), in the following human glioblastoma cell-lines U373, T98G and Hs683 and in the mouse glioma cell line GL261. Normal brain cells (primocultures from newborn mice) were also used in order to determine the bioselectivity (B^N/C) of the compounds of interest, i.e. the ratio between the concentrations that inhibits 50% of the growth of brain cancer (C) cells (glioma cells) and the concentration that inhibits 50% of the growth of normal (N) brain cells (primocultures of astrocytes). The ideal situation to be reached is a bioselectivity of B^N/C > 10.
(§2) MTT tests were performed in order to rapidly, i.e. within 5 days, measure the effect of compounds of this invention on the overall cell growth. The test measured the number of metabolically active living cells that were able to transform the yellow product 3-(4,5-dimethylthiazol-2-yl)-2,5-diphenyl tetrazolium bromide (herein referred as MTT) into the blue product formazan dye by mitochondrial reduction. The amount of formazan obtained at the end of the experiment, measured by means of a spectrophotometer, is directly proportional to the number of living cells. Optical density determination thus enabled a quantitative measurement of the effect of the investigated compounds as compared to the control condition (untreated cells) and/or to other reference compounds.
(§3) Three human cancer cell lines were used in the following MTT tests.
(§4) To perform the assay, cells were allowed to grow in 96-well micro-wells with a flat bottom with an amount of 100 µl of cell suspension per well with 1,000 to 8,000 cells/well depending on the cell type used. Each cell line was seeded in its appropriate culture medium.
(§5) The detailed experimental procedure was the following: after a 24-hour period of incubation at 37°C, the culture medium was replaced by 100 µl of fresh medium in which the tested compound was previously dissolved, at the following molar concentrations: 10^-8 M, 5.10^-8 M, 10^-7 M, 5.10^-7 M, 10^-6 M, 5.10^-6 M, 10^-5 M, 5.10^-5 M and 10^-4 M. Each experiment was performed in sextuplicate (6 times).
(§6) After 72 hours of incubation at 37°C with (experimental conditions) or without (control condition) the compound to be tested, the medium was replaced by 100 µl MTT dissolved in RPMI (1640 without phenol red) at a concentration of 0.5 mg/ml. The micro-wells were subsequently incubated during 3 hours and a half at 37°C and centrifuged at 1300 rpm during 10 minutes. MTT was removed and formazan crystals formed were dissolved in 100 µl DMSO. The micro-wells were shaken for 5 minutes and read on a spectrophotometer at wavelengths of 570 nm (maximal formazan absorbance).
(§7) For each experimental condition, the mean optical density was calculated, allowing the determination of the percentage of remaining living cells in comparison to the control.

[2] = system: Hs683; experiment: MTT colorimetric assay, overall cell growth; format: cell-based; details: Homo sapiens, Hs 683; Hs683 cells, 72 hours of incubation; read-out: IC50 (µM) In Vitro Growth Inhibitory Concentrations (MTT Colorimetric Assay) Hs683
Experimental: as §1, §2, §3, §4, §5, §6, §7

[3] = system: human U373 glioma cell line; experiment: Quantitative videomicroscopy (computer-assisted phase-contrast microscopy); format: cell-based; details: U373 cells treated at the IC50 concentration from MTT, filmed for 72h; cytostatic versus cytotoxic effects
Text: In addition, the inventors could establish that the compounds of the invention act through a non-apoptosis-related mechanism thanks to a unique experimental approach used by the inventors, i.e. computer-assisted phase-contrast microscopy (quantitative videomicroscopy), making them good candidates as anti-cancer drugs for treating apoptosis-resistant tumor or cancer cells and for overcoming problems linked to the known anti-cancer drugs.
As the MTT test is based on the mitochondria functions, we also investigated the effects of the compounds according to the invention on cell proliferation, migration and morphology by means of a cellular imaging approach (Debeir et al., Cytometry 60:29-40, 2004; Debeir et al., IEEE Trans Med Imaging 24:697-711, 2005) in the human U373 glioma cell line, which is apoptosis-resistant but autophagy-sensitive (Lefranc F et al., Neurosurgery 2008).
Cellular imaging relied on the use of computer-assisted phase-contrast microscopy making possible to film the behaviour of living cells in culture dishes for several days.
Cells were seeded in a 25-cm^2 flask at a low density, treated or not with the compounds of the invention (at their IC50 concentration determined previously by MTT tests) and filmed thereafter for a period of 72h. The experiment was conducted in triplicate.
The behaviour of the cells, in terms of morphology, growth and death were thus investigated. The effect on the overall growth was measured by counting the number of cells on the first (0h) and the last image (72h) of each film. The global growth ratio (GGR) was then deduced by dividing the number of cells on the last image by the number of cells on the first image. The ratio GGRtreated cells / GGRcontrol cells, was further calculated thereby obtaining a value that describes the effect of compounds of the present invention on the overall cell growth.
The methodology is fully described and validated in Debeir et al., 2008, Exp Cell Res 314:2985-2998 and Mathieu et al., 2009, J Cell Mol Med, Feb 20, 2009.
Thanks to the quantitative videomicroscopy (QVM) approach, we classified the compounds into 4 distinctive classes on the basis of their cytostatic versus cytotoxic effects (Table 3). • Class I: actually cytostatic for 3 days (< 10 % of cell death at the 3rd day) • Class II: cytostatic but becomes cytotoxic with < 10% cell death on the 2nd day and > 20% of cell death on the 3rd day • Class III: cytostatic but rapidly becomes cytotoxic with < 10% cell death on the 1st day, > 20% of cell death on the 2nd day and > 50% of cell death on the 3rd day • Class IV: cytotoxic (> 50% of cell death on the first day)
In Fig. 1a, compounds of example 14 (5 µM), example 19 (20 µM) and example 23 (5 µM) belong to QVM Class I because they display cytostatic effects on human U373 GBM cells during the whole duration of the experiment. Cytostatic effects mean that < 10 % of cell death was recorded at the end of the experiment, i.e. at the end of the 3rd day. QVM analyses enable the global growth ratio (GGR) to be calculated in each experiment. The GGR index is obtained by dividing the number of cells in the last image by the number of cells in the first image of the experiment, knowing that 1080 images are taken during the 72 h-period of observation. The ratio GGR^treated cells / GGR^control cells was further calculated thereby obtaining a value that describes the effect of compounds on the overall cell growth. Thus, a GGR index of 0.2 means that they remain only 20% of treated cells compare to the control cells at the end of the experiment.

[4] = system: T98G; experiment: MTT colorimetric assay, overall cell growth; details: Homo sapiens, 72 h, read-out: IC50 (µM) In Vitro Growth Inhibitory Concentrations (MTT Colorimetric Assay) T98G;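 also: growth inhibition of the human glioblastoma line measured by MTT reduction to formazan, optical density read on a spectrophotometer at 570 nm, untreated cells as control, nine concentrations from 10 nM to 100 µM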
Experimental: The compounds and particularly dihydrobenzopyran, thiochroman, tetrahydroquinoleine and tetrahydronaphthalene derivatives of the invention were evaluated for their anti-proliferative effect (by means of the colorimetric MTT assay), in the following human glioblastoma cell-lines U373, T98G and Hs683 and in the mouse glioma cell line GL261. Normal brain cells (primocultures from newborn mice) were also used in order to determine the bioselectivity (B^N/C) of the compounds of interest, i.e. the ratio between the concentrations that inhibits 50% of the growth of brain cancer (C) cells (glioma cells) and the concentration that inhibits 50% of the growth of normal (N) brain cells (primocultures of astrocytes).
as §2, §3, §4, §5
The micro-wells were subsequently incubated during 3 hours and a half at 37°C and centrifuged at 1300 rpm during 10 minutes. MTT was removed and formazan crystals formed were dissolved in 100 µl DMSO. The micro-wells were shaken for 5 minutes and read on a spectrophotometer at wavelengths of 570 nm (maximal formazan absorbance).
as §7

Row | Structure (SMILES) | IC50 [1] | IC50 [2] | QVM Class [3] | IC50 [4]
1 | CC(C)(C)OC(=O)Nc1ccc2c(c1)C(NC(=O)Nc1ccc(Cl)c(C(F)(F)F)c1)CC(C)(C)O2 (racemic) [Example 33, R/S-N-4-chloro-3-trifluoromethylphenyl-N'-(6-tert-butoxycarbonylamino-3,4-dihydro-2,2-dimethyl-2H-1-benzopyran-4-yl)urea] | 21 µM | 22 µM | III (Class III: cytostatic but rapidly becomes cytotoxic with < 10% cell death on the 1st day, > 20% of cell death on the 2nd day and > 50% of cell death on the 3rd day) | 23 µM
2 | CC(C)(C)OC(=O)Nc1ccc2c(c1)C(NC(=O)Nc1cccc(Cl)c1)CCO2 (racemic) [Example 2, R/S-N-3-chlorophenyl-N'-(6-tert-butoxycarbonylamino-3,4-dihydro-2H-1-benzopyran-4-yl)urea] | 19 µM | 28 µM |  | 29 µM
3 | CC(C)(C)OC(=O)Nc1ccc2c(c1)C(NC(=O)Nc1ccccc1[N+](=O)[O-])CC(C)(C)O2 (racemic) [Example 27, R/S-N-2-nitrophenyl-N'-(6-tert-butoxycarbonylamino-3,4-dihydro-2,2-dimethyl-2H-1-benzopyran-4-yl)urea] | 12 µM | 13 µM | I (Class I: actually cytostatic for 3 days (< 10 % of cell death at the 3rd day)) | 22 µM
4 | CC(C)(C)OC(=O)Nc1ccc2c(c1)C(NC(=O)Nc1ccc(Cl)cc1)CC(C)(C)O2 (racemic) [Example 17, R/S-N-4-chlorophenyl-N'-(6-tert-butoxycarbonylamino-3,4-dihydro-2,2-dimethyl-2H-1-benzopyran-4-yl)urea] | 22 µM | 26 µM | III (Class III: cytostatic but rapidly becomes cytotoxic with < 10% cell death on the 1st day, > 20% of cell death on the 2nd day and > 50% of cell death on the 3rd day) | 26 µM
5 | CC(C)(C)OC(=O)Nc1ccc2c(c1)C(NC(=O)Nc1ccc(Cl)cc1)CCO2 (racemic) [Example 3, R/S-N-4-chlorophenyl-N'-(6-tert-butoxycarbonylamino-3,4-dihydro-2H-1-benzopyran-4-yl)urea] | 11 µM | > 100 µM |  | > 100 µM
6 | CC(C)(C)OC(=O)Nc1ccc2c(c1)C(NC(=O)Nc1ccc(C#N)cc1)CCO2 (racemic) [Example 6, R/S-N-4-cyanophenyl-N'-(6-tert-butoxycarbonylamino-3,4-dihydro-2H-1-benzopyran-4-yl)urea] | 42 µM | 30 µM |  | 39 µM
7 | CC(C)(C)OC(=O)Nc1ccc2c(c1)C(NC(=O)Nc1ccc(Cl)cc1C(F)(F)F)CC(C)(C)O2 (racemic) [Example 37, R/S-N-4-chloro-2-trifluoromethylphenyl-N'-(6-tert-butoxycarbonylamino-3,4-dihydro-2,2-dimethyl-2H-1-benzopyran-4-yl)urea] | 34 µM | 30 µM | II (Class II: cytostatic but becomes cytotoxic with < 10% cell death on the 2nd day and > 20% of cell death on the 3rd day) | 38 µM
8 | CC(C)(C)OC(=O)Nc1ccc2c(c1)C(NC(=O)Nc1ccccc1Cl)CC(C)(C)O2 (racemic) [Example 35, R/S-N-2-chlorophenyl-N'-(6-tert-butoxycarbonylamino-3,4-dihydro-2,2-dimethyl-2H-1-benzopyran-4-yl)urea] | 59 µM | 34 µM |  | 100 µM
9 | CC(C)(C)OC(=O)Nc1ccc2c(c1)C(NC(=O)Nc1cccc(Br)c1)CC(C)(C)O2 (racemic) [Example 20, R/S-N-3-bromophenyl-N'-(6-tert-butoxycarbonylamino-3,4-dihydro-2,2-dimethyl-2H-1-benzopyran-4-yl)urea] | 22 µM | 18 µM | III (Class III: cytostatic but rapidly becomes cytotoxic with < 10% cell death on the 1st day, > 20% of cell death on the 2nd day and > 50% of cell death on the 3rd day) | 26 µM
10 | CC(C)(C)OC(=O)Nc1ccc2c(c1)C(NC(=O)Nc1ccc(F)cc1)CC(C)(C)O2 (racemic) [Example 18, R/S-N-4-fluorophenyl-N'-(6-tert-butoxycarbonylamino-3,4-dihydro-2,2-dimethyl-2H-1-benzopyran-4-yl)urea] | 30 µM | 35 µM | I (Class I: actually cytostatic for 3 days (< 10 % of cell death at the 3rd day)) | 33 µM
11 | CC(C)(C)OC(=O)Nc1ccc2c(c1)C(NC(=O)Nc1cccc(F)c1)CC(C)(C)O2 (racemic) [Example 19, R/S-N-3-fluorophenyl-N'-(6-tert-butoxycarbonylamino-3,4-dihydro-2,2-dimethyl-2H-1-benzopyran-4-yl)urea] | 20 µM | 19 µM | I (Class I: actually cytostatic for 3 days (< 10 % of cell death at the 3rd day)) | 26 µM
12 | CC(C)(C)OC(=O)Nc1ccc2c(c1)C(NC(=O)Nc1ccc(Br)cc1)CC(C)(C)O2 (racemic) [Example 34, R/S-N-4-bromophenyl-N'-(6-tert-butoxycarbonylamino-3,4-dihydro-2,2-dimethyl-2H-1-benzopyran-4-yl)urea] | 22 µM | 21 µM | III (Class III: cytostatic but rapidly becomes cytotoxic with < 10% cell death on the 1st day, > 20% of cell death on the 2nd day and > 50% of cell death on the 3rd day) | 21 µM
13 | CC(C)(C)OC(=O)Nc1ccc2c(c1)C(NC(=O)Nc1ccc(C(F)(F)F)cc1Cl)CC(C)(C)O2 (racemic) [Example 30, R/S-N-2-chloro-4-trifluoromethylphenyl-N'-(6-tert-butoxycarbonylamino-3,4-dihydro-2,2-dimethyl-2H-1-benzopyran-4-yl)urea] | 26 µM | 25 µM | II (Class II: cytostatic but becomes cytotoxic with < 10% cell death on the 2nd day and > 20% of cell death on the 3rd day) | 34 µM
14 | CC(C)(C)OC(=O)Nc1ccc2c(c1)C(NC(=O)Nc1ccccc1Cl)CCO2 (racemic) [Example 1, R/S-N-2-chlorophenyl-N'-(6-tert-butoxycarbonylamino-3,4-dihydro-2H-1-benzopyran-4-yl)urea] | 26 µM | 23 µM |  | 24 µM
15 | CC(C)(C)OC(=O)Nc1ccc2c(c1)C(NC(=O)Nc1cccc(C#N)c1)CCO2 (racemic) [Example 5, R/S-N-3-cyanophenyl-N'-(6-tert-butoxycarbonylamino-3,4-dihydro-2H-1-benzopyran-4-yl)urea] | 29 µM | 25 µM |  | 38 µM
16 | CC(C)(C)OC(=O)Nc1ccc2c(c1)C(NC(=O)Nc1ccccc1C#N)CC(C)(C)O2 (racemic) [Example 36, R/S-N-2-cyanophenyl-N'-(6-tert-butoxycarbonylamino-3,4-dihydro-2,2-dimethyl-2H-1-benzopyran-4-yl)urea] | 45 µM | 54 µM | I (Class I: actually cytostatic for 3 days (< 10 % of cell death at the 3rd day)) | 67 µM
17 | CC(C)(C)OC(=O)Nc1ccc2c(c1)C(NC(=O)Nc1ccccc1C#N)CCO2 (racemic) [Example 4, R/S-N-2-cyanophenyl-N'-(6-tert-butoxycarbonylamino-3,4-dihydro-2H-1-benzopyran-4-yl)urea] | 53 µM | 44 µM |  | 65 µM
